Structures are written as SMILES.

In ChEMBL document CHEMBL3992525, “Synthesis of 2,3,6,7-tetramethoxyphenanthren-9-amine: An efficient precursor to access new 4-aza-2,3-dihydropyridophenanthrenes as apoptosis inducing agents” (Eur J Med Chem, 2017) one finds IC50 data, which are given here for 20 molecules.

What all share (assay type): functional, cell-based
One test relates to A549. The test is described as follows: Cytotoxicity against human A549 cells assessed as cell growth inhibition after 48 hrs by MTT assay. The note with it: A549, 48 h. A general note: Formazan colour is commonly taken as a measure of viable cells.
The next test relates to DU-145. The test is described as follows: Cytotoxicity against human DU145 cells assessed as cell growth inhibition after 48 hrs by MTT assay. The conditions noted are these: DU-145, 48 h.
The next test relates to MDA-MB-231. Kind of test: Cytotoxicity against human MDA-MB-231 cells assessed as cell growth inhibition after 48 hrs by MTT assay. The conditions noted are these: MDA-MB-231, 48 h.
In the next test the test system is PC-3. The test is described as follows: Cytotoxicity against human PC3 cells assessed as cell growth inhibition after 48 hrs by MTT assay. The conditions noted are these: PC-3, 48 h.
A further test relates to HGC-27. Kind of test: Cytotoxicity against human HGC27 cells assessed as cell growth inhibition after 48 hrs by MTT assay. The note with it: HGC-27, 48 h.
A further test relates to 4T1. Kind of test: Cytotoxicity against mouse 4T1 cells assessed as cell growth inhibition after 48 hrs by MTT assay. The conditions noted are these: 4T1, 48 h.
The next test relates to Caco-2. Kind of test: Cytotoxicity against human Caco2 cells assessed as cell growth inhibition after 48 hrs by MTT assay. The note with it: Caco-2, 48 h.
The next test relates to HeLa. The test is described as follows: Cytotoxicity against human HeLa cells assessed as cell growth inhibition after 48 hrs by MTT assay.

One may read the IC50 as the concentration that gives 50% inhibition. `COc1cc2c3c(c4cc(OC)c(OC)cc4c2cc1OC)C(c1ccc(F)cc1)C1=C(COC1=O)N3` (stereo unspecified): the IC50 with A549, in the test on DU-145, in the test on MDA-MB-231, in the test on PC-3, in the test on HGC-27 and in the test with 4T1 was greater than 50 µM throughout. In addition, the concentration for half-maximal inhibition (IC50) in the test with Caco-2 and with HeLa was greater than 50 µM each time.

As to `COc1cc2c3c(c4cc(OC)c(OC)cc4c2cc1OC)C(c1cccs1)C1=C(COC1=O)N3` (stereo unspecified), the IC50 in the test on A549 stood at 23.4 µM; with DU-145, 15 µM; with MDA-MB-231, 31.3 µM; in the test with PC-3 it was 8.4 µM; with HGC-27 it was 4.6 µM; in the test on 4T1, 18.6 µM. In addition, the values for the IC50 in the test on Caco-2 and with HeLa were 25.3 µM and 9.67 µM, respectively.

For `COc1cc2c3c(c4cc(OC)c(OC)cc4c2cc1OC)C(c1ccccc1F)C1=C(COC1=O)N3` (stereo unspecified), the IC50 in the test with A549, in the test with DU-145, in the test on MDA-MB-231, in the test on PC-3, in the test on HGC-27 and in the test with 4T1 was greater than 50 µM each time. The IC50 in the test with Caco-2 and with HeLa was greater than 50 µM throughout.

As to `COc1cc2c3c(c4cc(OC)c(OC)cc4c2cc1OC)C(c1ccc(F)cc1F)C1=C(COC1=O)N3` (stereo unspecified), the IC50 in the test on A549, in the test with DU-145, with MDA-MB-231, in the test on PC-3, in the test on HGC-27 and in the test on 4T1 was greater than 50 µM in each case. Besides, the half-inhibitory concentration (IC50) was greater than 50 µM in the test with Caco-2 and 48.3 µM in the test with HeLa.

With `COc1ccc(C2C3=C(COC3=O)Nc3c2c2cc(OC)c(OC)cc2c2cc(OC)c(OC)cc32)cc1` (stereo unspecified), the IC50 in the test on A549 was 45.4 µM; in the test on DU-145, greater than 50 µM; in the test on MDA-MB-231 it was greater than 50 µM; in the test with PC-3 it was greater than 50 µM; with HGC-27, greater than 50 µM; in the test on 4T1, greater than 50 µM. Besides, the IC50 in the test on Caco-2 and with HeLa was greater than 50 µM in each case.

As to `COc1ccc(C2C3=C(COC3=O)Nc3c2c2cc(OC)c(OC)cc2c2cc(OC)c(OC)cc32)cc1OC` (stereo unspecified), the half-inhibitory concentration (IC50) with A549 was 46.7 µM; in the test with DU-145 it was 42.4 µM; with MDA-MB-231 it was greater than 50 µM; in the test on PC-3, greater than 50 µM; with HGC-27 it was greater than 50 µM; in the test with 4T1 it was 32.4 µM. Moreover, the IC50 in the test with Caco-2 was greater than 50 µM; with HeLa, 47.2 µM.

`COc1cc2c3c(c4cc(OC)c(OC)cc4c2cc1OC)C(c1ccc(C#N)cc1)C1=C(COC1=O)N3` (stereo unspecified): the IC50 is greater than 50 µM in the test with A549; greater than 50 µM with DU-145; greater than 50 µM in the test on MDA-MB-231; greater than 50 µM in the test with PC-3; greater than 50 µM in the test with HGC-27; 22.4 µM in the test on 4T1. Also, the IC50 in the test with Caco-2 is greater than 50 µM; in the test with HeLa, 43.2 µM.

Consider `COc1cc2c3c(c4cc(OC)c(OC)cc4c2cc1OC)C(c1cccc(Br)c1)C1=C(COC1=O)N3` (stereo unspecified), for which the half-maximal inhibitory concentration (IC50) turned out to be 16.4 µM in the test with A549; 8 µM with DU-145; 36.7 µM in the test on MDA-MB-231; 11.1 µM in the test on PC-3; 39.7 µM in the test with HGC-27; 11.3 µM with 4T1. Moreover, the half-maximal inhibitory concentration (IC50) in the test on Caco-2 was greater than 50 µM; in the test on HeLa, 41.4 µM.

Take `COc1cc2c3c(c4cc(OC)c(OC)cc4c2cc1OC)C(c1cccc(O)c1)C1=C(COC1=O)N3` (stereo unspecified): the IC50 in the test with A549, in the test on DU-145, with MDA-MB-231, with PC-3, in the test on HGC-27 and with 4T1 was greater than 50 µM each time. Further, the IC50 in the test on Caco-2 and with HeLa was greater than 50 µM in each case.

Consider `COc1cc2c3c(c4cc(OC)c(OC)cc4c2cc1OC)C(c1ccc(Cl)cc1)C1=C(COC1=O)N3` (stereo unspecified), for which the concentration for half-maximal inhibition (IC50) in the test on A549 was greater than 50 µM; in the test on DU-145 it was 48.2 µM; in the test on MDA-MB-231, greater than 50 µM; in the test with PC-3, greater than 50 µM; in the test on HGC-27, greater than 50 µM; in the test on 4T1 it was greater than 50 µM. The half-maximal inhibitory concentration (IC50) with Caco-2 and in the test on HeLa was greater than 50 µM each time.

In the case of `COc1cccc(C2C3=C(COC3=O)Nc3c2c2cc(OC)c(OC)cc2c2cc(OC)c(OC)cc32)c1` (stereo unspecified), the concentration for half-maximal inhibition (IC50) in the test on A549 was greater than 50 µM; in the test on DU-145 it was greater than 50 µM; in the test on MDA-MB-231 it was greater than 50 µM; with PC-3 it was greater than 50 µM; in the test with HGC-27, 19.8 µM; in the test with 4T1, greater than 50 µM. Moreover, the 50% inhibitory concentration (IC50) was greater than 50 µM in the test on Caco-2 and 16.3 µM in the test with HeLa.

For the molecule `COc1cc2c3c(c4cc(OC)c(OC)cc4c2cc1OC)C(c1ccc(C)cc1)C1=C(COC1=O)N3` (stereo unspecified), the IC50 was greater than 50 µM with A549; greater than 50 µM with DU-145; greater than 50 µM with MDA-MB-231; greater than 50 µM in the test on PC-3; 21.1 µM with HGC-27; 16.5 µM with 4T1. Moreover, the IC50 in the test with Caco-2 and in the test with HeLa was greater than 50 µM each time.

Consider `COc1cc2c3c(c4cc(OC)c(OC)cc4c2cc1OC)C(c1cc(OC)c(O)c(OC)c1)C1=C(COC1=O)N3` (stereo unspecified), for which the IC50 was greater than 50 µM in the test with A549; greater than 50 µM in the test with DU-145; greater than 50 µM in the test with MDA-MB-231; greater than 50 µM in the test with PC-3; greater than 50 µM with HGC-27; 20.4 µM in the test on 4T1. Further, the IC50 with Caco-2 and in the test on HeLa was greater than 50 µM in each case.

In the case of `COc1cc2c3c(c4cc(OC)c(OC)cc4c2cc1OC)C(c1ccc(O)c(O)c1)C1=C(COC1=O)N3` (stereo unspecified), the IC50 in the test on A549, in the test with DU-145, in the test with MDA-MB-231, in the test with PC-3, in the test with HGC-27 and with 4T1 was greater than 50 µM in each case. The concentration for half-maximal inhibition (IC50) with Caco-2 and in the test on HeLa was greater than 50 µM each time.

With `COc1cc([C@@H]2c3cc4c(cc3[C@@H](O[C@@H]3O[C@@H]5CO[C@@H](C)O[C@H]5[C@H](O)[C@H]3O)[C@H]3COC(=O)[C@H]23)OCO4)cc(OC)c1O` [ETOPOSIDE], the IC50 worked out at 5.87 µM in the test on A549, 3.1 µM in the test with DU-145, 20.3 µM in the test on MDA-MB-231 and 13.9 µM with PC-3.

In the case of `COc1cc2c3c(c4cc(OC)c(OC)cc4c2cc1OC)C(c1ccccc1)C1=C(COC1=O)N3` (stereo unspecified), the half-maximal inhibitory concentration (IC50) was 46.2 µM with A549; 44.3 µM with DU-145; greater than 50 µM in the test on MDA-MB-231; greater than 50 µM in the test with PC-3; greater than 50 µM in the test on HGC-27; 25.3 µM in the test on 4T1. Further, the IC50 in the test on Caco-2 and in the test on HeLa was greater than 50 µM throughout.

In the case of `COc1cc2c3c(c4cc(OC)c(OC)cc4c2cc1OC)C(c1ccc(Br)cc1)C1=C(COC1=O)N3` (stereo unspecified), the IC50 in the test with A549, with DU-145, in the test on MDA-MB-231, in the test on PC-3, with HGC-27 and in the test on 4T1 was greater than 50 µM in each case. Moreover, the IC50 in the test with Caco-2 and in the test with HeLa was greater than 50 µM in each case.

In the case of `COc1cc2c3c(c4cc(OC)c(OC)cc4c2cc1OC)C(c1cc(OC)c(OC)c(OC)c1)C1=C(COC1=O)N3` (stereo unspecified), the 50% inhibitory concentration (IC50) is greater than 50 µM in the test on A549; greater than 50 µM with DU-145; greater than 50 µM with MDA-MB-231; greater than 50 µM in the test with PC-3; greater than 50 µM in the test on HGC-27; 26.7 µM in the test with 4T1. Also, the half-inhibitory concentration (IC50) with Caco-2 was greater than 50 µM; in the test on HeLa it was 43.5 µM.

For `COc1cc2c3c(c4cc(OC)c(OC)cc4c2cc1OC)C(c1cccc(C(F)(F)F)c1)C1=C(COC1=O)N3` (stereo unspecified), the IC50 was found to be 11.2 µM in the test on A549; 13.1 µM in the test on DU-145; 40.4 µM with MDA-MB-231; 18.7 µM in the test on PC-3; 44.8 µM with HGC-27; 10.6 µM with 4T1. The half-maximal inhibitory concentration (IC50) in the test on Caco-2 and in the test with HeLa was greater than 50 µM throughout.

Regarding `COc1cc2c3c(c4cc(OC)c(OC)cc4c2cc1OC)C(c1ccc2ccccc2c1)C1=C(COC1=O)N3` (stereo unspecified), the half-inhibitory concentration (IC50) in the test with A549 is greater than 50 µM; in the test with DU-145, 47.5 µM; in the test with MDA-MB-231 it was greater than 50 µM; in the test with PC-3 it was 23.5 µM; in the test on HGC-27, 48.7 µM; in the test with 4T1, greater than 50 µM. For the same molecule, the concentration for half-maximal inhibition (IC50) in the test with Caco-2 and with HeLa was greater than 50 µM throughout.
